Measurements: article PMC8800111 (The Journal of Biological Chemistry, 2021)

Legend:
Assay type in all cases: cell-based
[1] = biological target: proteins of U3A human fibrosarcoma cells (4462 proteins detected) (Homo sapiens, UniProt Q9NWH9); conditions: protein SLTM; soluble abundance after heat, U3A cells
[2] = biological target: proteins of U3A human fibrosarcoma cells (4462 proteins detected) (Homo sapiens, UniProt Q9H9Q2); conditions: protein COPS7B; U3A cells
[3] = biological target: proteins of U3A human fibrosarcoma cells (4462 proteins detected) (Homo sapiens, UniProt P35790); conditions: protein CHKA; U3A, 10 μM, 2 h
[4] = biological target: proteins of U3A human fibrosarcoma cells (4462 proteins detected) (Homo sapiens, UniProt Q9Y237); conditions: protein PIN4, U3A cells
[5] = biological target: proteins of U3A human fibrosarcoma cells (4462 proteins detected) (Homo sapiens, UniProt Q9BWU0); conditions: protein SLC4A1AP, U3A cells
[6] = biological target: proteins of U3A human fibrosarcoma cells (4462 proteins detected) (Homo sapiens, UniProt P52294); conditions: protein KPNA1; U3A cells
Chain of proteins of U3A human fibrosarcoma cells (4462 proteins detected) (Homo sapiens, UniProt P52294) (P52294 whole entry): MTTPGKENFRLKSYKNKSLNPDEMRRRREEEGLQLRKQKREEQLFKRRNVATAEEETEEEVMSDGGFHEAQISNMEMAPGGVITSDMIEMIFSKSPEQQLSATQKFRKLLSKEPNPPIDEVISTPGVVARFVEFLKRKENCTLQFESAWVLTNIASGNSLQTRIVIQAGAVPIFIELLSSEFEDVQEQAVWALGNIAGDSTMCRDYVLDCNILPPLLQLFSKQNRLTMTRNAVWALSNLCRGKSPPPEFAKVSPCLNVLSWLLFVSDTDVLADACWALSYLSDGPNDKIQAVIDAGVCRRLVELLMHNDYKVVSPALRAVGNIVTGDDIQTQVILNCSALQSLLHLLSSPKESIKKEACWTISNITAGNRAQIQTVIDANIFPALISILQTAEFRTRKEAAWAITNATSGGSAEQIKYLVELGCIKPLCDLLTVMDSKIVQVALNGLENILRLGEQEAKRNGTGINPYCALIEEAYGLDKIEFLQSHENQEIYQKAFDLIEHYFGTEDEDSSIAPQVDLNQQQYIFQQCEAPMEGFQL

[7] = biological target: proteins of U3A human fibrosarcoma cells (4462 proteins detected) (Homo sapiens, UniProt Q13330); conditions: protein MTA1; U3A cells
Chain of proteins of U3A human fibrosarcoma cells (4462 proteins detected) (Homo sapiens, UniProt Q13330) (Q13330 whole entry): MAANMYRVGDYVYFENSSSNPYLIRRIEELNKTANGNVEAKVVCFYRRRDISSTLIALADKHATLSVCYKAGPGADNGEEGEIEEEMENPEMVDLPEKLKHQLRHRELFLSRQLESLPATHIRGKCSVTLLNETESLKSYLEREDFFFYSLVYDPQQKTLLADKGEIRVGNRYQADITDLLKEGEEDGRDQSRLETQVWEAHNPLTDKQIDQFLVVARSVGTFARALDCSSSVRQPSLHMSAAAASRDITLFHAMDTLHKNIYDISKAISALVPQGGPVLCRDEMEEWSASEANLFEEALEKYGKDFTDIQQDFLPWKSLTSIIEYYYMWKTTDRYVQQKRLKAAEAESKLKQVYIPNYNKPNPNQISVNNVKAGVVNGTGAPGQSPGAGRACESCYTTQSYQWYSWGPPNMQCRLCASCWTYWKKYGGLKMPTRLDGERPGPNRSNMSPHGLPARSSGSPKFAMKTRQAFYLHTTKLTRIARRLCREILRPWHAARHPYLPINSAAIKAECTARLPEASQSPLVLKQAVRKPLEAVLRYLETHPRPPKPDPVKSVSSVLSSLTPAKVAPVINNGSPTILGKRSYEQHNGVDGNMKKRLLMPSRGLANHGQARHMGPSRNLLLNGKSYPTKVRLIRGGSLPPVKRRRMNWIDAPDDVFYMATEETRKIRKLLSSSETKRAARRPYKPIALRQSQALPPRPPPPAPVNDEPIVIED

[8] = biological target: proteins of U3A human fibrosarcoma cells (4462 proteins detected) (Homo sapiens, UniProt Q53H96); conditions: protein PYCRL; U3A, 10 μM, 2 h
[9] = biological target: proteins of U3A human fibrosarcoma cells (4462 proteins detected) (Homo sapiens, UniProt P49321); conditions: protein NASP, U3A cells
[10] = biological target: proteins of U3A human fibrosarcoma cells (4462 proteins detected) (Homo sapiens, UniProt O14828); conditions: protein SCAMP3; soluble abundance after heat, U3A cells
[11] = biological target: proteins of U3A human fibrosarcoma cells (4462 proteins detected) (Homo sapiens, UniProt Q8IXK0); conditions: protein PHC2; U3A cells
Chain of proteins of U3A human fibrosarcoma cells (4462 proteins detected) (Homo sapiens, UniProt Q8IXK0) (Q8IXK0 whole entry): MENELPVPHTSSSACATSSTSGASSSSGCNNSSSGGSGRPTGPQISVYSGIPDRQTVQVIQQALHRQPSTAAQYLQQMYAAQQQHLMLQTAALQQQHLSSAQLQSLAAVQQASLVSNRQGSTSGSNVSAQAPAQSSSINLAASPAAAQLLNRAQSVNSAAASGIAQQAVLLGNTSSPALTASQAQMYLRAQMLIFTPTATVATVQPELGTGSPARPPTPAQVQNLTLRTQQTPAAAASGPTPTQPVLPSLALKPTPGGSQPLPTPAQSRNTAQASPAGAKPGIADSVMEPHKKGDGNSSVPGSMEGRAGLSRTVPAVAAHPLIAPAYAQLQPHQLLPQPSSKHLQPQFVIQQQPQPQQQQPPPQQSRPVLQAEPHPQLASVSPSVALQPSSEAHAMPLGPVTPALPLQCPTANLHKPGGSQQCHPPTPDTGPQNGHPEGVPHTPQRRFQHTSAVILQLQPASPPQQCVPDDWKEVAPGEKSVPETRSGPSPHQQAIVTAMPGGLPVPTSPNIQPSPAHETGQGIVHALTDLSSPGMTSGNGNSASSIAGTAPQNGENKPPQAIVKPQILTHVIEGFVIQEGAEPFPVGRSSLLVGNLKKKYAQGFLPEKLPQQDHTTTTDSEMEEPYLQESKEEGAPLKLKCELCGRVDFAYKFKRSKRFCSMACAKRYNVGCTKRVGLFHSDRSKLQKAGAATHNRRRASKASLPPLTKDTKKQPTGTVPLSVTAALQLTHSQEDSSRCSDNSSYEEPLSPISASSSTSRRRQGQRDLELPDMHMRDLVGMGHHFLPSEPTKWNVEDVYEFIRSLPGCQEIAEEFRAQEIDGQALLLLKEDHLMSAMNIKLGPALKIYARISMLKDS

[12] = biological target: proteins of U3A human fibrosarcoma cells (4462 proteins detected) (Homo sapiens, UniProt P35606); conditions: protein COPB2; soluble abundance after heat, U3A cells
[13] = biological target: proteins of U3A human fibrosarcoma cells (4462 proteins detected) (Homo sapiens, UniProt P13861); conditions: protein PRKAR2A; soluble abundance after heat, U3A cells
[14] = biological target: proteins of U3A human fibrosarcoma cells (4462 proteins detected) (Homo sapiens, UniProt P49588); conditions: protein AARS, U3A cells
[15] = biological target: proteins of U3A human fibrosarcoma cells (4462 proteins detected) (Homo sapiens, UniProt Q9Y6E0); conditions: protein STK24; soluble abundance after heat, U3A cells
[16] = biological target: proteins of U3A human fibrosarcoma cells (4462 proteins detected) (Homo sapiens, UniProt Q5VW36); conditions: protein FOCAD; U3A cells
[17] = biological target: proteins of U3A human fibrosarcoma cells (4462 proteins detected) (Homo sapiens, UniProt P48507); conditions: protein GCLM; U3A cells
Chain of proteins of U3A human fibrosarcoma cells (4462 proteins detected) (Homo sapiens, UniProt P48507) (P48507 whole entry): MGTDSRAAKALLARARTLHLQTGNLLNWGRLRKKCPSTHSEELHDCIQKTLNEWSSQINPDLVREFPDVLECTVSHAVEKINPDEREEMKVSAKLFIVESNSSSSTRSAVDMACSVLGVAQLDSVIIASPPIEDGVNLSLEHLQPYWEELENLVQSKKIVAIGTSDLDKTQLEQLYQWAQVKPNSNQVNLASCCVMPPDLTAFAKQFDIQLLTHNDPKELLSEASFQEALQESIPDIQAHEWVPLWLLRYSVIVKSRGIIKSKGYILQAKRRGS

[18] = biological target: proteins of U3A human fibrosarcoma cells (4462 proteins detected) (Homo sapiens, UniProt Q7L5N1); conditions: protein COPS6; U3A cells
Chain of proteins of U3A human fibrosarcoma cells (4462 proteins detected) (Homo sapiens, UniProt Q7L5N1) (Q7L5N1 whole entry): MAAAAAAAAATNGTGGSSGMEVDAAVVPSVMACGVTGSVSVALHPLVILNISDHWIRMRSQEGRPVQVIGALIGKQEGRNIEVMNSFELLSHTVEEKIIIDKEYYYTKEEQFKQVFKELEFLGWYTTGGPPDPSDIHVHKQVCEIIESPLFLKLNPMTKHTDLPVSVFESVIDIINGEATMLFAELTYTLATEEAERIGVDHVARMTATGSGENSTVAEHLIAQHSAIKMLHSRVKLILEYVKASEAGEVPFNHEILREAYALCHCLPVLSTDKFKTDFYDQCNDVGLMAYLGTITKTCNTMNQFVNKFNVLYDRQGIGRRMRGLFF

[19] = biological target: proteins of U3A human fibrosarcoma cells (4462 proteins detected) (Homo sapiens, UniProt P63096); conditions: protein GNAI1; soluble abundance after heat, U3A cells
[20] = biological target: proteins of U3A human fibrosarcoma cells (4462 proteins detected) (Homo sapiens, UniProt O14964); conditions: protein HGS; U3A cells
[21] = biological target: proteins of U3A human fibrosarcoma cells (4462 proteins detected) (Homo sapiens, UniProt Q9NR28); conditions: protein DIABLO; U3A cells
[22] = biological target: proteins of U3A human fibrosarcoma cells (4462 proteins detected) (Homo sapiens, UniProt Q96TA2); conditions: protein YME1L1; U3A cells
[23] = biological target: proteins of U3A human fibrosarcoma cells (4462 proteins detected) (Homo sapiens, UniProt P82663); conditions: protein MRPS25; U3A cells
[24] = biological target: proteins of U3A human fibrosarcoma cells (4462 proteins detected) (Homo sapiens, UniProt P29992); conditions: protein GNA11; U3A cells
[25] = biological target: proteins of U3A human fibrosarcoma cells (4462 proteins detected) (Homo sapiens, UniProt Q9Y6G3); conditions: protein MRPL42; soluble abundance after heat, U3A cells
[26] = biological target: proteins of U3A human fibrosarcoma cells (4462 proteins detected) (Homo sapiens, UniProt P20839); conditions: protein IMPDH1, U3A cells
Chain of proteins of U3A human fibrosarcoma cells (4462 proteins detected) (Homo sapiens, UniProt P20839) (P20839 whole entry): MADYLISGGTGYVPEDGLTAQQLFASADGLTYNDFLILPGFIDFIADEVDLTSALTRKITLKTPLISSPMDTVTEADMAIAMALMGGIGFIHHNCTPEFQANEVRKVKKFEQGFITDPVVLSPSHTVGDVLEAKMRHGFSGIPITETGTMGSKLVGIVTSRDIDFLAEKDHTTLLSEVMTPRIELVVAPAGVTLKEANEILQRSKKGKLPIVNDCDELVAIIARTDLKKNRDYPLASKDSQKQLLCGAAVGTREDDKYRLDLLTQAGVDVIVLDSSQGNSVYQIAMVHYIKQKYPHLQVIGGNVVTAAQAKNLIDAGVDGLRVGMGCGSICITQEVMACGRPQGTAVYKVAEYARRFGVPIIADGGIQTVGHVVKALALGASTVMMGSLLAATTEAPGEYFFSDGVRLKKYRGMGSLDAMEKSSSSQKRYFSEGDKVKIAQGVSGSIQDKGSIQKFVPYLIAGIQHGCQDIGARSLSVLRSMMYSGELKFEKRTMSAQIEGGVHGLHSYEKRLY

[27] = biological target: proteins of U3A human fibrosarcoma cells (4462 proteins detected) (Homo sapiens, UniProt Q9BQG0); conditions: protein MYBBP1A; U3A, 10 μM, 2 h
Chain of proteins of U3A human fibrosarcoma cells (4462 proteins detected) (Homo sapiens, UniProt Q9BQG0) (Q9BQG0 whole entry): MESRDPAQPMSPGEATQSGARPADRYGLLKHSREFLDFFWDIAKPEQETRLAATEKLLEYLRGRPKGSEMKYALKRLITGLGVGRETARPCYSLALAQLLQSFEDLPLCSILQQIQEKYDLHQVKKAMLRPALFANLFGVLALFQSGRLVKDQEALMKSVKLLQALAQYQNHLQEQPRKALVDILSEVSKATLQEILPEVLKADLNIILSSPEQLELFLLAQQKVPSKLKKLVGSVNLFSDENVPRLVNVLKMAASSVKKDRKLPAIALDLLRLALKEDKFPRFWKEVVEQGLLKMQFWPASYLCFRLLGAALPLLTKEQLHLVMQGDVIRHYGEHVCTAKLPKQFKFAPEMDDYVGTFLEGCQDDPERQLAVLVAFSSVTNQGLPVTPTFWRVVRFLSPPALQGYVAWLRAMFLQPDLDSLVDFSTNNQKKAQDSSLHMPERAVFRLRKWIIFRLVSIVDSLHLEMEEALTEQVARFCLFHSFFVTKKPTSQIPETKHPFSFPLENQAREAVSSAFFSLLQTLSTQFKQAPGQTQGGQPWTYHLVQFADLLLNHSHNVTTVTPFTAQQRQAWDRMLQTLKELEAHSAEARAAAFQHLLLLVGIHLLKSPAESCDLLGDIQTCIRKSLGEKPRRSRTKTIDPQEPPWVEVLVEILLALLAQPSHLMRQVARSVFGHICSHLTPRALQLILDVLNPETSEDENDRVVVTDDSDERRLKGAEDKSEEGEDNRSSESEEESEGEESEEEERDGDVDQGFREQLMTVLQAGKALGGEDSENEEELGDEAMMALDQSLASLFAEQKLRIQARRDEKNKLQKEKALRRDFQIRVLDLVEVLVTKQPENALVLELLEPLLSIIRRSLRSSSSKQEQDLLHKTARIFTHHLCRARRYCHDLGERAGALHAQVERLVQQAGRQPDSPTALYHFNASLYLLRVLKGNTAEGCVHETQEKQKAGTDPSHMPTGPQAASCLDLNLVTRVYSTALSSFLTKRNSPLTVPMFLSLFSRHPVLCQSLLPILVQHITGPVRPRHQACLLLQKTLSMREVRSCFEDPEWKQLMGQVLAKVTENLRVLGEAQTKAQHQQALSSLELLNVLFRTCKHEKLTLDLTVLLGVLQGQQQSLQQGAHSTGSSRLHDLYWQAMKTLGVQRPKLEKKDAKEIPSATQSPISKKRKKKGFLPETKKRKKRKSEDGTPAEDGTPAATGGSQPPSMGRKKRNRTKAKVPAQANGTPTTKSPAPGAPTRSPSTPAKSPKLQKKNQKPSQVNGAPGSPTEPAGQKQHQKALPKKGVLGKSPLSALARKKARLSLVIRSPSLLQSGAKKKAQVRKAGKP

[28] = biological target: proteins of U3A human fibrosarcoma cells (4462 proteins detected) (Homo sapiens, UniProt Q9UL15); conditions: protein BAG5; U3A cells
Chain of proteins of U3A human fibrosarcoma cells (4462 proteins detected) (Homo sapiens, UniProt Q9UL15) (Q9UL15 whole entry): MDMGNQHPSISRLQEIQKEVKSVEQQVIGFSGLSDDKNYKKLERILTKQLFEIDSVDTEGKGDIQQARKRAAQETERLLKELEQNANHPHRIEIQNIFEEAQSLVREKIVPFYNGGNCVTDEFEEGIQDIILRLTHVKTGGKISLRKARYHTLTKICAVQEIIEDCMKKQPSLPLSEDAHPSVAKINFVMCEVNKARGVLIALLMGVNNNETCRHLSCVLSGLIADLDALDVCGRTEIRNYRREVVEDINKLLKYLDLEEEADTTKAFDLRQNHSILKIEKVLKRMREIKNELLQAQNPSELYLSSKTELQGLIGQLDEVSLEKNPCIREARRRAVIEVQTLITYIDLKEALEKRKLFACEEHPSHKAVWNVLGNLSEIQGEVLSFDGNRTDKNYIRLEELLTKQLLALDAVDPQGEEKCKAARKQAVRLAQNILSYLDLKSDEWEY

[29] = biological target: proteins of U3A human fibrosarcoma cells (4462 proteins detected) (Homo sapiens, UniProt Q96D46); conditions: protein NMD3; soluble abundance after heat, U3A cells
[30] = biological target: proteins of U3A human fibrosarcoma cells (4462 proteins detected) (Homo sapiens, UniProt Q9NY33); conditions: protein DPP3, U3A cells

## CCc1nc(N)nc(N)c1-c1ccc(Cl)cc1 [pyrimethamine]
[1]
  Log2 (PYR/DMSO): 0.15
[2]
  Log2 (PYR/DMSO): 0.19
[3]
  Log2 (PYR/DMSO), CHKA: 0.24
[4]
  Log2 (PYR/DMSO): -0.05
[5]
  Log2 (PYR/DMSO): -0.04
[6]
  Log2 (PYR/DMSO): 0.17
[7]
  Log2 (PYR/DMSO): 0.16
[8]
  Log2 (PYR/DMSO), PYCRL: -0.15
[9]
  Log2 (PYR/DMSO): -0.04
[10]
  Log2 (PYR/DMSO): 0.14
[11]
  Log2 (PYR/DMSO): 0.16
[12]
  Log2 (PYR/DMSO): 0.15
[13]
  Log2 (PYR/DMSO): 0.14
[14]
  Log2 (PYR/DMSO): -0.04
[15]
  Log2 (PYR/DMSO): 0.15
[16]
  Log2 (PYR/DMSO): 0.20
[17]
  Log2 (PYR/DMSO): 0.20
[18]
  Log2 (PYR/DMSO): 0.16
[19]
  Log2 (PYR/DMSO): 0.14
[20]
  Log2 (PYR/DMSO): 0.16
[21]
  Log2 (PYR/DMSO): 0.16
[22]
  Log2 (PYR/DMSO): 0.16
[23]
  Log2 (PYR/DMSO): 0.17
[24]
  Log2 (PYR/DMSO): 0.16
[25]
  Log2 (PYR/DMSO): 0.14
[26]
  Log2 (PYR/DMSO): -0.04
[27]
  Log2 (PYR/DMSO), MYBBP1A: 0.26
[28]
  Log2 (PYR/DMSO): 0.16
[29]
  Log2 (PYR/DMSO): 0.13
[30]
  Log2 (PYR/DMSO): -0.04
